How the values were obtained:
[1] = molecular target: T1, HiBit-BRM fusion protein (Homo sapiens, UniProt P51531); experiment: HiBiT-BRM cell-based degradation assay (Nano-Glo HiBiT Lytic Detection, 24 h); conditions: HeLa cell line expressing HiBiT-BRM; for DC50: read-out: BRM HiBit Degradation IC50
T1 construct: expressed in transfected cells
Outline: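 Luminescence from reconstituted NanoBiT luciferase in lysed HeLa HiBiT-BRM cells served as the measure of remaining BRM after 24 h treatment. Compounds were tested from 30 μM final downward in 3-fold steps. DMSO and 2 μM of a standard BRM/BRG1 degrader defined the scale limits.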

[2] = molecular target: T2, HiBit-BRG1 fusion protein (Homo sapiens, UniProt P51532); experiment: HiBiT-BRG1 cell-based degradation assay (Nano-Glo HiBiT Lytic Detection, 24 h); conditions: HeLa cell line expressing HiBit-BRG1 and LgBit; for Dmax: read-out: BRG1 HiBit Degradation Maximum (%); for DC50: read-out: BRMG1 HiBit Degradation IC50
T2 construct: expressed in transfected cells
Outline: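 HeLa cells stably expressing HiBit-BRG1 plus LgBit; compound exposure 24 h; Nano-Glo HiBiT lytic luminescence; % degradation vs DMSO (0%) and 2 μM standard BRM/BRG1 degrader (100%).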

T1 sequence (P51531 whole entry, the tested form may be a part): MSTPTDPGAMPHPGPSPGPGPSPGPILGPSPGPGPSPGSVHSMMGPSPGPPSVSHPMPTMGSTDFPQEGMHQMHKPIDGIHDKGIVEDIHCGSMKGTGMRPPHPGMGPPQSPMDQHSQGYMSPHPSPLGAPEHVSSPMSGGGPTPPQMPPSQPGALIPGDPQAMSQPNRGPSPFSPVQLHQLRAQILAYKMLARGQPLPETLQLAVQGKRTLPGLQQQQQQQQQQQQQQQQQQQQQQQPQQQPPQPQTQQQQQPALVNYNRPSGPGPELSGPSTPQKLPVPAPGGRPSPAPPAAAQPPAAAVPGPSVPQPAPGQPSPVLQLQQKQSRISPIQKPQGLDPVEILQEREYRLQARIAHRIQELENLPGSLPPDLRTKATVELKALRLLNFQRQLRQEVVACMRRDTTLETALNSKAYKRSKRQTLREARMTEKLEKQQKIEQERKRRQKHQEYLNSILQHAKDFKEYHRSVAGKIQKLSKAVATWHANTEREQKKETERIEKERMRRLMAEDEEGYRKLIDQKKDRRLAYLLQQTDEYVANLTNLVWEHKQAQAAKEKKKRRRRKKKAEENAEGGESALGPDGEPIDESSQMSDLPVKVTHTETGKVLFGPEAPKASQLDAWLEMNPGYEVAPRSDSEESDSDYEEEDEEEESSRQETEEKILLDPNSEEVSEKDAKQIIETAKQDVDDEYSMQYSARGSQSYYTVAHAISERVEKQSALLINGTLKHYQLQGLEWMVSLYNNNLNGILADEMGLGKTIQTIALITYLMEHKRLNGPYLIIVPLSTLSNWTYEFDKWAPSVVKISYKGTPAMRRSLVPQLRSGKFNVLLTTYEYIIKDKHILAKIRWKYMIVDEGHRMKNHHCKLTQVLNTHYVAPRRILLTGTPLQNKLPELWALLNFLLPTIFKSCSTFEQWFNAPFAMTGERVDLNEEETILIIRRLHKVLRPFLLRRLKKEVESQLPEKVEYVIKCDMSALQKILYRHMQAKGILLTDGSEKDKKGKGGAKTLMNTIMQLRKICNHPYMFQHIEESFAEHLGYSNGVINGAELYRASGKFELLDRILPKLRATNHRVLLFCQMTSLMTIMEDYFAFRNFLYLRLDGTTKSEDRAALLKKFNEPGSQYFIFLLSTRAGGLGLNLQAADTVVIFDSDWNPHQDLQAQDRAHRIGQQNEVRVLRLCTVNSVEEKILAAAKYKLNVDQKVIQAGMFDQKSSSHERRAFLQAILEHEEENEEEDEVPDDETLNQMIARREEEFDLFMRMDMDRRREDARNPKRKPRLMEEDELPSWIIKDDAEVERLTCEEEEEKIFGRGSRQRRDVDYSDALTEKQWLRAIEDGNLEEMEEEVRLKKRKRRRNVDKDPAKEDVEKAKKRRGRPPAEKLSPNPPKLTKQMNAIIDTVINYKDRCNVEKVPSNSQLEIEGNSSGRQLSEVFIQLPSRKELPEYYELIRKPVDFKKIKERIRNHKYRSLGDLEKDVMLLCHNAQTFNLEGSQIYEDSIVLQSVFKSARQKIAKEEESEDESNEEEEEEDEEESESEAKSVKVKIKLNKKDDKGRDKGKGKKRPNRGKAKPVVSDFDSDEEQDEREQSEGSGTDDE
T2 sequence (P51532 whole entry, the tested form may be a part): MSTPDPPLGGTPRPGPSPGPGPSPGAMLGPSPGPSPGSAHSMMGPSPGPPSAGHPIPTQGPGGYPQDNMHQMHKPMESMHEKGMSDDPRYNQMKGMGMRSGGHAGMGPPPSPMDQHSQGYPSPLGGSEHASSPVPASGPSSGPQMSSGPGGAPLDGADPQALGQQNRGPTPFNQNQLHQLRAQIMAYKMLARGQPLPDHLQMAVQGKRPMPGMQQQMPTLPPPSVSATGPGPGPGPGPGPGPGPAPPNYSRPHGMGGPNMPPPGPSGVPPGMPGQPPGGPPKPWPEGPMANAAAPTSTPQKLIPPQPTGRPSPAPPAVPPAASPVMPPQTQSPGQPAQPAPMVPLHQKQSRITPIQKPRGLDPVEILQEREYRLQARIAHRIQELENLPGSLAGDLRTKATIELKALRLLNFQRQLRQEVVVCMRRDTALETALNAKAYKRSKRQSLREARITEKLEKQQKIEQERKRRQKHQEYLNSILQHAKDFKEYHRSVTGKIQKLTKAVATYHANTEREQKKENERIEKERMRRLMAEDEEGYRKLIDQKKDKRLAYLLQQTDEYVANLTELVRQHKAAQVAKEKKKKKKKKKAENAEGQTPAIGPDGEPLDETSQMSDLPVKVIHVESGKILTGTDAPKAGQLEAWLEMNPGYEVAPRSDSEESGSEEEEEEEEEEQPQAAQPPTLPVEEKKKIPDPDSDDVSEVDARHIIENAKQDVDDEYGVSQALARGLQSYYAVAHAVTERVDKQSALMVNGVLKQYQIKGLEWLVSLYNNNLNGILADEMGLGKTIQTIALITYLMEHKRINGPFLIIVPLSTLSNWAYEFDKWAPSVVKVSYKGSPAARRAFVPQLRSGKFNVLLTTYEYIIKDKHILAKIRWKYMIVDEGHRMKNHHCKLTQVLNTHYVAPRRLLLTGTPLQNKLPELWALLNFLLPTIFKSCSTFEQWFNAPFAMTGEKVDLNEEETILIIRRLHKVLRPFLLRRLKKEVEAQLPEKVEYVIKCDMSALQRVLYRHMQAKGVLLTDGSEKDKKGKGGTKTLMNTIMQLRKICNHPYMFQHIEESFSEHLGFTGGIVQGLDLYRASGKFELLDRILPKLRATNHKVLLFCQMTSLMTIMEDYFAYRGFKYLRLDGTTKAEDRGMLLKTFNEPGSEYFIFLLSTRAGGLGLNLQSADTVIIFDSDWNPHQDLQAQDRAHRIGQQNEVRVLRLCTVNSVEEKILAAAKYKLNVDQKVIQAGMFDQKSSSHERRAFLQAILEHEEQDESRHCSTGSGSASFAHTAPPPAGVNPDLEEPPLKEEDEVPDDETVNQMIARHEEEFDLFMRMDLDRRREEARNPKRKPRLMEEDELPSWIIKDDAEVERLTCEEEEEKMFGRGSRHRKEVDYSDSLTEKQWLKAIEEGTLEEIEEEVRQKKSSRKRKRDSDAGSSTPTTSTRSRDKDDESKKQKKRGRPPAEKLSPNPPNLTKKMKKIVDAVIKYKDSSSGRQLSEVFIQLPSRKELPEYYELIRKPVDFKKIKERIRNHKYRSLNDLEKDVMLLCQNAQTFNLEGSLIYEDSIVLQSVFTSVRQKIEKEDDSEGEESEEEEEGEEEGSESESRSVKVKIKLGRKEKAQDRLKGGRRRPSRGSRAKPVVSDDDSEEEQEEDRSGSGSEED

| SMILES | DC50 [1] | Dmax [2] | DC50 [2] | BRM HiBit Degradation Maximum (%) [1] |
| --- | --- | --- | --- | --- |
| Cc1ncsc1-c1ccc([C@H](C)NC(=O)[C@@H]2C[C@@H](O)CN2C(=O)[C@@H](c2cc(N3CCC(CN4CCc5[nH]c6nnc(-c7ccccc7O)cc6c5[C@H]4C)CC3)no2)C(C)C)cc1 (racemic) [Compound 81, (2S,4R)-4-hydroxy-1-[(2R)-2-[3-(4-{[(3R)-12-(2-hydroxyphenyl)-3-methyl-4,8,10,11-tetraazatricyclo[7.4.0.0^{2,7}]trideca-1(13),2(7),9,11-tetraen-4-yl]methyl}piperidin-1-yl)-1,2-oxazol-5-yl]-3-methylbutanoyl]-N-[(1S)-1-[4-(4-methyl-1,3-thiazol-5-yl)phenyl]ethyl]pyrrolidine-2-carboxamide] | > 10 nM | > 75% | > 100 nM | A (“A” indicates maximum degradation ≥ 75%) |
| Cc1ncsc1-c1ccc([C@H](C)NC(=O)[C@@H]2C[C@@H](O)CN2C(=O)[C@@H](c2cc(N3CCC(C(=O)N4CCc5[nH]c6nnc(-c7ccccc7O)cc6c5[C@H]4C)CC3)no2)C(C)C)cc1 (racemic) [Compound 82, (2S,4R)-4-hydroxy-1-((R)-2-(3-(4-((R)-3-(2-hydroxyphenyl)-5-methyl-6,7,8,9-tetrahydro-5H-pyrido[3′,4′:4,5]pyrrolo[2,3-c]pyridazine-6-carbonyl)piperidin-1-yl)isoxazol-5-yl)-3-methylbutanoyl)-N-((S)-1-(4-(4-methylthiazol-5-yl)phenyl)ethyl)pyrrolidine-2-carboxamide] | < 10 nM | > 75% | > 100 nM | A (“A” indicates maximum degradation ≥ 75%) |
| Cc1ncsc1-c1ccc([C@H](C)NC(=O)[C@@H]2C[C@@H](O)CN2C(=O)[C@@H](c2cc(N3CCC(CN4CCc5[nH]c6nnc(-c7ccccc7O)cc6c5[C@@H]4C)CC3)no2)C(C)C)cc1 (racemic) [Compound 83, (2S,4R)-4-hydroxy-1-[(2R)-2-[3-(4-{[(3S)-12-(2-hydroxyphenyl)-3-methyl-4,8,10,11-tetraazatricyclo[7.4.0.0^{2,7}]trideca-1(13),2(7),9,11-tetraen-4-yl]methyl}piperidin-1-yl)-1,2-oxazol-5-yl]-3-methylbutanoyl]-N-[(1S)-1-[4-(4-methyl-1,3-thiazol-5-yl)phenyl]ethyl]pyrrolidine-2-carboxamide] | > 10 nM | > 75% | > 10 nM | A (“A” indicates maximum degradation ≥ 75%) |
| Cc1ncsc1-c1ccc([C@H](C)NC(=O)[C@@H]2C[C@@H](O)CN2C(=O)[C@@H](c2cc(OCCCN3CC4(Cc5cc(-c6ccccc6O)nnc5N4)C3)no2)C(C)C)cc1 (racemic) [Compound 84, (2S,4R)-4-hydroxy-1-((R)-2-(3-(3-(3′-(2-hydroxyphenyl)-5′,7′-dihydrospiro[azetidine-3,6′-pyrrolo[2,3-c]pyridazin]-1-yl)propoxy)isoxazol-5-yl)-3-methylbutanoyl)-N-((S)-1-(4-(4-methylthiazol-5-yl)phenyl)ethyl)pyrrolidine-2-carboxamide] |  | < 50% |  | C (“C” indicates maximum degradation < 50%) |
| Cc1ncsc1-c1ccc([C@H](C)NC(=O)[C@@H]2C[C@@H](O)CN2C(=O)[C@@H](c2cc(N3CCC(C(=O)N4CCc5[nH]c6nnc(-c7ccccc7O)cc6c5[C@@H]4C)CC3)no2)C(C)C)cc1 (racemic) [Compound 86, (2S,4R)-4-hydroxy-1-((R)-2-(3-(4-((S)-3-(2-hydroxyphenyl)-5-methyl-6,7,8,9-tetrahydro-5H-pyrido[3′,4′:4,5]pyrrolo[2,3-c]pyridazine-6-carbonyl)piperidin-1-yl)isoxazol-5-yl)-3-methylbutanoyl)-N-((S)-1-(4-(4-methylthiazol-5-yl)phenyl)ethyl)pyrrolidine-2-carboxamide] | > 100 nM | < 50% |  | A (“A” indicates maximum degradation ≥ 75%) |
| Cc1ncsc1-c1ccc([C@H](C)NC(=O)[C@@H]2C[C@@H](O)CN2C(=O)[C@@H](c2cc(N(C)CCN3CC4(Cc5cc(-c6ccccc6O)nnc5N4)C3)no2)C(C)C)cc1 (racemic) [Compound 87, (2S,4R)-4-hydroxy-1-((R)-2-(3-((2-(3′-(2-hydroxyphenyl)-5′,7′-dihydrospiro[azetidine-3,6′-pyrrolo[2,3-c]pyridazin]-1-yl)ethyl)(methyl)amino)isoxazol-5-yl)-3-methylbutanoyl)-N-((S)-1-(4-(4-methylthiazol-5-yl)phenyl)ethyl)pyrrolidine-2-carboxamide] |  | < 50% |  | C (“C” indicates maximum degradation < 50%) |

Continued, in another order:

| DC50 [1] | Dmax [2] | DC50 [2] | SMILES | BRM HiBit Degradation Maximum (%) [1] |
| --- | --- | --- | --- | --- |
| > 10 nM | > 75% | > 100 nM | Cc1ncsc1-c1ccc(CNC(=O)[C@@H]2C[C@@H](O)CN2C(=O)[C@@H](NC(=O)[C@H]2CC[C@H](c3cnc(N4CCC(c5cc6cc(-c7ccccc7O)nnc6[nH]5)CC4)nc3)CC2)C(C)(C)C)cc1 (racemic) [Compound 93, (2S,4R)-4-hydroxy-1-((S)-2-((1r,4S)-4-(2-(4-(3-(2-hydroxyphenyl)-7H-pyrrolo[2,3-c]pyridazin-6-yl)piperidin-1-yl)pyrimidin-5-yl)cyclohexane-1-carboxamido)-3,3-dimethylbutanoyl)-N-(4-(4-methylthiazol-5-yl)benzyl)pyrrolidine-2-carboxamide] | A (“A” indicates maximum degradation ≥ 75%) |
| > 10 nM | < 50% |  | Cc1ncsc1-c1ccc(CNC(=O)[C@@H]2C[C@@H](O)CN2C(=O)[C@@H](NC(=O)[C@H]2CC[C@@H](c3cnc(N4CCC(c5cc6cc(-c7ccccc7O)nnc6[nH]5)CC4)nc3)CC2)C(C)(C)C)cc1 (racemic) [Compound 94, (2S,4R)-4-hydroxy-1-((S)-2-((1s,4R)-4-(2-(4-(3-(2-hydroxyphenyl)-7H-pyrrolo[2,3-c]pyridazin-6-yl)piperidin-1-yl)pyrimidin-5-yl)cyclohexane-1-carboxamido)-3,3-dimethylbutanoyl)-N-(4-(4-methylthiazol-5-yl)benzyl)pyrrolidine-2-carboxamide] | A (“A” indicates maximum degradation ≥ 75%) |
| > 1000 nM | < 50% |  | Cc1ncsc1-c1ccc([C@H](C)NC(=O)[C@@H]2C[C@@H](O)CN2C(=O)[C@@H](c2cc(OCC(=O)N3CC4(Cc5cc(-c6ccccc6O)nnc5N4)C3)no2)C(C)C)cc1 (racemic) [Compound 95, (2S,4R)-4-hydroxy-1-((R)-2-(3-(2-(3′-(2-hydroxyphenyl)-5′,7′-dihydrospiro[azetidine-3,6′-pyrrolo[2,3-c]pyridazin]-1-yl)-2-oxoethoxy)isoxazol-5-yl)-3-methylbutanoyl)-N-((S)-1-(4-(4-methylthiazol-5-yl)phenyl)ethyl)pyrrolidine-2-carboxamide] | B (“B” indicates maximum degradation ≥ 50%) |
| > 10 nM | > 50% | > 100 nM | Cc1ncsc1-c1ccc([C@H](C)NC(=O)[C@@H]2C[C@@H](O)CN2C(=O)[C@@H](c2cc(N3CCC(CN4CC5(Cc6cc(-c7ccccc7O)nnc6N5)C4)CC3)no2)C(C)C)cc1 (racemic) [Compound 96, (2S,4R)-4-hydroxy-1-((R)-2-(3-(4-((3′-(2-hydroxyphenyl)-5′,7′-dihydrospiro[azetidine-3,6′-pyrrolo[2,3-c]pyridazin]-1-yl)methyl)piperidin-1-yl)isoxazol-5-yl)-3-methylbutanoyl)-N-((S)-1-(4-(4-methylthiazol-5-yl)phenyl)ethyl)pyrrolidine-2-carboxamide] | A (“A” indicates maximum degradation ≥ 75%) |
| > 100 nM | < 50% |  | Cc1ncsc1-c1ccc([C@H](C)NC(=O)[C@@H]2C[C@@H](O)CN2C(=O)[C@@H](c2cc(N3CCC(C(=O)N4CC5(Cc6cc(-c7ccccc7O)nnc6N5)C4)CC3)no2)C(C)C)cc1 (racemic) [Compound 97, (2S,4R)-4-hydroxy-1-((R)-2-(3-(4-(3′-(2-hydroxyphenyl)-5′,7′-dihydrospiro[azetidine-3,6′-pyrrolo[2,3-c]pyridazine]-1-carbonyl)piperidin-1-yl)isoxazol-5-yl)-3-methylbutanoyl)-N-((S)-1-(4-(4-methylthiazol-5-yl)phenyl)ethyl)pyrrolidine-2-carboxamide] | A (“A” indicates maximum degradation ≥ 75%) |
| > 10 nM | < 50% |  | Cc1ncsc1-c1ccc([C@H](C)NC(=O)[C@@H]2C[C@@H](O)CN2C(=O)[C@@H](c2cc(N3CCC(N4CC5(Cc6cc(-c7ccccc7O)nnc6N5)C4)CC3)no2)C(C)C)cc1 (racemic) [Compound 98, (2S,4R)-4-hydroxy-1-((R)-2-(3-(4-(3′-(2-hydroxyphenyl)-5′,7′-dihydrospiro[azetidine-3,6′-pyrrolo[2,3-c]pyridazin]-1-yl)piperidin-1-yl)isoxazol-5-yl)-3-methylbutanoyl)-N-((S)-1-(4-(4-methylthiazol-5-yl)phenyl)ethyl)pyrrolidine-2-carboxamide] | A (“A” indicates maximum degradation ≥ 75%) |
